Reference: ChEMBL document CHEMBL3817795, “Identification and optimisation of a series of N-(4-anilino-2-pyridyl)acetamide activin receptor-like kinase 1 (ALK1) inhibitors” (Medchemcomm, 2016)
≈ marks a conversion by molar mass, not a printed value.

Experiments:
[1] = Solubility of the compound; assay type: physicochemical
[2] = Lipophilicity, log D of the compound at pH 7.4; assay type: physicochemical; conditions: buffer

| Compound | solubility [1] | logD [2] |
| --- | --- | --- |
| O=C(Nc1cc(Nc2c(Cl)ccc3c2OCO3)ccn1)C1CC1 | 46 µM (≈ 15.3 µg/mL) | 3.3 |
| O=C(Nc1cc(Nc2cccc3c2OCO3)ccn1)C1CC1 | – | 3.7 |
| O=C(Nc1cc(Nc2ccccc2Cl)ccn1)C1CC1 | 49 µM (≈ 14.1 µg/mL) | – |
